Test results taken from paper PMC5218480 (PLoS ONE, 2017).

Test system: MV-4-11 cells
Assay: Gene expression microarray analysis (Affymetrix PrimeView) and GSEA
Type: cell-based, human
Parameters: RFU PODN (11730768_x_at) / Fold change /veh PODN (11730768_x_at) / RFU LINC00158 (11744669_a_at) / Fold change /veh LINC00158 (11744669_a_at) / RFU DUSP10 (11751237_a_at) / Fold change /veh DUSP10 (11751237_a_at) / RFU ID3 (11757404_x_at) / Fold change /veh ID3 (11757404_x_at) / RFU PLEKHG5 (11737974_s_at) / Fold change /veh PLEKHG5 (11737974_s_at) / RFU LRRC4B (11730491_at) / Fold change /veh LRRC4B (11730491_at) / RFU GIMAP4 (11747438_a_at) / Fold change /veh GIMAP4 (11747438_a_at) / RFU KRT8 (11758183_x_at) / Fold change /veh KRT8 (11758183_x_at) / RFU CNN1 (11734310_a_at) / Fold change /veh CNN1 (11734310_a_at) / RFU VPS37D (11726825_at) / Fold change /veh VPS37D (11726825_at) / RFU C10orf10 (11716522_x_at) / Fold change /veh C10orf10 (11716522_x_at) / RFU KIR2DL2 /// KIR2DL4 /// KIR2DL5A /// KIR2DL5B /// KIR2DS1 /// KIR2DS2 /// KIR2DS3 /// KIR2DS4 /// KIR3DL3 /// KIR3DL3 /// KIR3DS1 (11738374_at) / Fold change /veh KIR2DL2 /// KIR2DL4 /// KIR2DL5A /// KIR2DL5B /// KIR2DS1 /// KIR2DS2 /// KIR2DS3 /// KIR2DS4 /// KIR3DL3 /// KIR3DL3 /// KIR3DS1 (11738374_at) / RFU C1QL1 (11718748_at) / Fold change /veh C1QL1 (11718748_at) / RFU TMPRSS4 (11747572_a_at) / Fold change /veh TMPRSS4 (11747572_a_at) / RFU HAMP (11756126_x_at) / Fold change /veh HAMP (11756126_x_at) / RFU RNFT2 (11725882_a_at) / Fold change /veh RNFT2 (11725882_a_at) / RFU NR4A2 (11747474_a_at) / Fold change /veh NR4A2 (11747474_a_at) / RFU ABCC12 (11746883_a_at) / Fold change /veh ABCC12 (11746883_a_at) / RFU TMEM136 (11760407_x_at) / Fold change /veh TMEM136 (11760407_x_at) / RFU CLDN22 /// WWC2 (11732394_at) / Fold change /veh CLDN22 /// WWC2 (11732394_at) / RFU HLA-DPB1 (11760878_x_at) / Fold change /veh HLA-DPB1 (11760878_x_at) / RFU SPINT1 (11716480_a_at) / Fold change /veh SPINT1 (11716480_a_at) / RFU GAP43 (11754022_s_at) / Fold change /veh GAP43 (11754022_s_at) / RFU A4GNT (11735810_at) / Fold change /veh A4GNT (11735810_at) / RFU PRB3 (11715151_x_at) / Fold change /veh PRB3 (11715151_x_at) / RFU TUBB4B (11761932_at) / Fold change /veh TUBB4B (11761932_at) / RFU CAPN14 (11732068_a_at) / Fold change /veh CAPN14 (11732068_a_at) / RFU TMCC2 (11721928_a_at) / Fold change /veh TMCC2 (11721928_a_at) / RFU IRGQ (11745062_a_at) / Fold change /veh IRGQ (11745062_a_at) / RFU FAM174B (11720279_a_at) / Fold change /veh FAM174B (11720279_a_at) / RFU TMPRSS4 (11748680_a_at) / Fold change /veh TMPRSS4 (11748680_a_at) / RFU FAM212B (11763350_a_at) / Fold change /veh FAM212B (11763350_a_at) / RFU PLEKHG5 (11743358_a_at) / Fold change /veh PLEKHG5 (11743358_a_at) / RFU ZSCAN30 (11745921_a_at) / Fold change /veh ZSCAN30 (11745921_a_at) / RFU CMKLR1 (11741424_a_at) / Fold change /veh CMKLR1 (11741424_a_at) / RFU LOC101060620 /// MAPK8IP1 (11723275_at) / Fold change /veh LOC101060620 /// MAPK8IP1 (11723275_at) / RFU SPTSSB (11747773_x_at) / Fold change /veh SPTSSB (11747773_x_at) / RFU PRSS12 (11739890_at) / Fold change /veh PRSS12 (11739890_at) / RFU BIN1 (11741810_x_at) / Fold change /veh BIN1 (11741810_x_at) / RFU WNT11 (11732464_a_at) / Fold change /veh WNT11 (11732464_a_at) / RFU C10orf10 (11716521_a_at) / Fold change /veh C10orf10 (11716521_a_at) / RFU C5orf56 (11738089_at) / Fold change /veh C5orf56 (11738089_at) / RFU CYB561 (11721691_x_at) / Fold change /veh CYB561 (11721691_x_at) / RFU ANKRD19P (11752326_a_at) / Fold change /veh ANKRD19P (11752326_a_at) / RFU OR2T12 /// OR2T33 /// OR2T8 (11738714_s_at) / Fold change /veh OR2T12 /// OR2T33 /// OR2T8 (11738714_s_at) / RFU VCAN (11748164_a_at) / Fold change /veh VCAN (11748164_a_at) / RFU JSRP1 (11732532_at) / Fold change /veh JSRP1 (11732532_at) / RFU KRTAP10-11 (11738290_x_at) / Fold change /veh KRTAP10-11 (11738290_x_at) / RFU MYO3A (11730013_a_at) / Fold change /veh MYO3A (11730013_a_at) / RFU EBF3 (11725865_a_at) / Fold change /veh EBF3 (11725865_a_at) / RFU CAMK2N1 (11719241_x_at) / Fold change /veh CAMK2N1 (11719241_x_at) / RFU C5orf56 (11738088_a_at) / Fold change /veh C5orf56 (11738088_a_at) / RFU OLFML3 (11715873_a_at) / Fold change /veh OLFML3 (11715873_a_at) / RFU LOC100653217 /// NTM (11731650_a_at) / Fold change /veh LOC100653217 /// NTM (11731650_a_at) / RFU MAPK11 (11762145_a_at) / Fold change /veh MAPK11 (11762145_a_at) / RFU FIZ1 (11724087_x_at) / Fold change /veh FIZ1 (11724087_x_at) / RFU OASL (11726364_x_at) / Fold change /veh OASL (11726364_x_at) / RFU SOX15 (11748057_x_at) / Fold change /veh SOX15 (11748057_x_at) / RFU CD79A (11719716_a_at) / Fold change /veh CD79A (11719716_a_at) / RFU HIST1H1D (11736915_at) / Fold change /veh HIST1H1D (11736915_at) / RFU CASKIN2 (11723855_a_at) / Fold change /veh CASKIN2 (11723855_a_at) / RFU LOC730098 (11760151_x_at) / Fold change /veh LOC730098 (11760151_x_at) / RFU OR4N2 (11742367_at) / Fold change /veh OR4N2 (11742367_at) / RFU PRRT2 (11749266_a_at) / Fold change /veh PRRT2 (11749266_a_at) / RFU SNX32 (11753110_a_at) / Fold change /veh SNX32 (11753110_a_at) / RFU CDHR5 (11726645_a_at) / Fold change /veh CDHR5 (11726645_a_at) / RFU RCAN1 (11760418_a_at) / Fold change /veh RCAN1 (11760418_a_at) / RFU FAM167A (11723789_a_at) / Fold change /veh FAM167A (11723789_a_at) / RFU FAM26E (11764081_at) / Fold change /veh FAM26E (11764081_at) / RFU ISYNA1 (11749810_s_at) / Fold change /veh ISYNA1 (11749810_s_at) / RFU ACY1 (11761880_at) / Fold change /veh ACY1 (11761880_at) / RFU 11764098_at / Fold change /veh 11764098_at / RFU SAMD14 (11745864_x_at) / Fold change /veh SAMD14 (11745864_x_at) / RFU NPB (11741838_a_at) / Fold change /veh NPB (11741838_a_at) / RFU TMPRSS6 (11731388_a_at) / Fold change /veh TMPRSS6 (11731388_a_at) / RFU KRTAP10-2 (11738614_at) / Fold change /veh KRTAP10-2 (11738614_at) / RFU ARHGAP8 /// PRR5-ARHGAP8 (11727945_x_at) / Fold change /veh ARHGAP8 /// PRR5-ARHGAP8 (11727945_x_at) / RFU KRTAP5-7 /// NADSYN1 (11734609_at) / Fold change /veh KRTAP5-7 /// NADSYN1 (11734609_at) / RFU RASL12 (11751679_a_at) / Fold change /veh RASL12 (11751679_a_at) / RFU CDKN2B (11736163_a_at) / Fold change /veh CDKN2B (11736163_a_at) / RFU PRF1 (11729649_at) / Fold change /veh PRF1 (11729649_at) / RFU, ZNF638 /// ZNF638-IT1 / Fold change vs veh, ZNF638 /// ZNF638-IT1 / RFU, PANK3 / Fold change vs veh, PANK3 / RFU, SH3YL1 / Fold change vs veh, SH3YL1 / RFU, ZEB2 / Fold change vs veh, ZEB2 / RFU, NRIP1 / Fold change vs veh, NRIP1 / RFU, PTTG1IP / Fold change vs veh, PTTG1IP / RFU, CAPN2 / Fold change vs veh, CAPN2 / RFU, MED14 / Fold change vs veh, MED14 / RFU, SNORA58 / Fold change vs veh, SNORA58 / RFU, C1orf63 / Fold change vs veh, C1orf63 / RFU, LRRFIP1 / Fold change vs veh, LRRFIP1 / RFU, NDUFAF7 / Fold change vs veh, NDUFAF7 / RFU, SLC12A2 / Fold change vs veh, SLC12A2 / RFU, IBTK / Fold change vs veh, IBTK / RFU, ESF1 / Fold change vs veh, ESF1 / Fold change vs veh, TMEM50B / RFU, TAOK1 / Fold change vs veh, TAOK1 / RFU, ACBD3 / Fold change vs veh, ACBD3 / RFU, TMA16 / Fold change vs veh, TMA16 / RFU, RWDD3 / Fold change vs veh, RWDD3 / RFU, BCAT1 / Fold change vs veh, BCAT1 / RFU, EDEM3 / Fold change vs veh, EDEM3 / RFU, TMEM33 / Fold change vs veh, TMEM33 / RFU, WDR75 / Fold change vs veh, WDR75 / RFU, AHCTF1 / Fold change vs veh, AHCTF1 / RFU, TFRC / Fold change vs veh, TFRC / RFU, ZDHHC17 / Fold change vs veh, ZDHHC17 / RFU, NOM1 / Fold change vs veh, NOM1 / RFU, ARL8B / Fold change vs veh, ARL8B / RFU, ZBTB11 / Fold change vs veh, ZBTB11 / RFU, TAMM41 / Fold change vs veh, TAMM41 / RFU, KIAA1704 /// LOC100996395 / Fold change vs veh, KIAA1704 /// LOC100996395 / RFU, ING1 / Fold change vs veh, ING1 / RFU, TRMT61B / Fold change vs veh, TRMT61B / RFU, FUBP3 / Fold change vs veh, FUBP3 / RFU, TP53 / Fold change vs veh, TP53 / RFU, TNKS2 / Fold change vs veh, TNKS2 / RFU, ZFP14 / Fold change vs veh, ZFP14 / RFU, ACTR2 / Fold change vs veh, ACTR2 / RFU, PPP3R1 / Fold change vs veh, PPP3R1 / RFU, PIK3R1 / Fold change vs veh, PIK3R1 / RFU, HNRNPA1 / Fold change vs veh, HNRNPA1 / RFU, RNF170 / Fold change vs veh, RNF170 / RFU, ZNF28 / Fold change vs veh, ZNF28 / RFU, RNGTT / Fold change vs veh, RNGTT / RFU, OGT / Fold change vs veh, OGT / RFU, BRD1 / Fold change vs veh, BRD1 / RFU, MARS / Fold change vs veh, MARS / RFU, ZNF655 / Fold change vs veh, ZNF655 / RFU, FAHD1 / Fold change vs veh, FAHD1 / RFU, BDP1 / Fold change vs veh, BDP1 / RFU, LRRCC1 / Fold change vs veh, LRRCC1 / RFU, ARID1A / Fold change vs veh, ARID1A / RFU, ZNF146 / Fold change vs veh, ZNF146 / RFU, ZNF330 / Fold change vs veh, ZNF330 / RFU, GPN3 / Fold change vs veh, GPN3 / RFU, C9orf123 / Fold change vs veh, C9orf123 / RFU, N4BP2L2 / Fold change vs veh, N4BP2L2 / RFU, ARFIP1 / Fold change vs veh, ARFIP1 / RFU, FAM179B / Fold change vs veh, FAM179B / RFU, BCL10 / Fold change vs veh, BCL10 / RFU, UHRF1BP1L / Fold change vs veh, UHRF1BP1L / RFU, BET1 / Fold change vs veh, BET1 / RFU, CNOT2 / Fold change vs veh, CNOT2 / RFU, ZNF268 / Fold change vs veh, ZNF268 / Fold change vs veh, ZNF507 / RFU, DGCR2 / Fold change vs veh, DGCR2 / RFU, WDSUB1 / Fold change vs veh, WDSUB1 / Fold change vs veh, HSP90B1 /// MIR3652 / RFU, ADSS / Fold change vs veh, ADSS / RFU, GK / Fold change vs veh, GK / RFU, ZNF148 / Fold change vs veh, ZNF148 / RFU, TAF9 / Fold change vs veh, TAF9 / RFU, SLC1A5 / Fold change vs veh, SLC1A5 / RFU, SLMO2 / Fold change vs veh, SLMO2 / RFU, ABCC4 / Fold change vs veh, ABCC4 / RFU, LOC101060439 /// RAP1B / Fold change vs veh, LOC101060439 /// RAP1B / RFU, RFX7 / Fold change vs veh, RFX7 / RFU, GTPBP10 / Fold change vs veh, GTPBP10 / RFU, CNEP1R1 / Fold change vs veh, CNEP1R1 / RFU, BIVM-ERCC5 /// ERCC5 / Fold change vs veh, BIVM-ERCC5 /// ERCC5 / RFU, ILF3 / Fold change vs veh, ILF3 / RFU 11762660_at / Fold change /veh 11762660_at / RFU VCAN (11757783_s_at) / Fold change /veh VCAN (11757783_s_at) / RFU DDX43 (11728927_at) / Fold change /veh DDX43 (11728927_at) / RFU KRT8 (11758188_x_at) / Fold change /veh KRT8 (11758188_x_at) / RFU NKD1 (11759106_at) / Fold change /veh NKD1 (11759106_at) / RFU SRD5A1 (11742802_a_at) / Fold change /veh SRD5A1 (11742802_a_at) / RFU TPSAB1 /// TPSB2 (11721975_s_at) / Fold change /veh TPSAB1 /// TPSB2 (11721975_s_at) / RFU GSTM3 (11746129_a_at) / Fold change /veh GSTM3 (11746129_a_at) / RFU IL23R (11737362_x_at) / Fold change /veh IL23R (11737362_x_at) / RFU TMEM51 (11727254_a_at) / Fold change /veh TMEM51 (11727254_a_at) / RFU PIWIL2 (11732686_x_at) / Fold change /veh PIWIL2 (11732686_x_at) / RFU ORM1 (11744905_x_at) / Fold change /veh ORM1 (11744905_x_at) / RFU CCDC152 (11743942_at) / Fold change /veh CCDC152 (11743942_at) / RFU ECM1 (11717891_a_at) / Fold change /veh ECM1 (11717891_a_at) / RFU IL23R (11748794_a_at) / Fold change /veh IL23R (11748794_a_at) / RFU TNFAIP8L3 (11732012_x_at) / Fold change /veh TNFAIP8L3 (11732012_x_at) / RFU MBOAT4 (11741988_at) / Fold change /veh MBOAT4 (11741988_at) / RFU 11764193_at / Fold change /veh 11764193_at / RFU TMEM53 (11763286_at) / Fold change /veh TMEM53 (11763286_at) / RFU MAGEB2 (11727129_at) / Fold change /veh MAGEB2 (11727129_at) / RFU TMEM200A (11744735_a_at) / Fold change /veh TMEM200A (11744735_a_at) / RFU CCDC152 (11751479_a_at) / Fold change /veh CCDC152 (11751479_a_at) / RFU FAM211A (11726209_a_at) / Fold change /veh FAM211A (11726209_a_at) / RFU RGS16 (11746705_a_at) / Fold change /veh RGS16 (11746705_a_at) / RFU VCAN (11755009_s_at) / Fold change /veh VCAN (11755009_s_at) / RFU RHOB (11743442_s_at) / Fold change /veh RHOB (11743442_s_at) / RFU RGS16 (11720943_a_at) / Fold change /veh RGS16 (11720943_a_at) / RFU RGS16 (11720944_at) / Fold change /veh RGS16 (11720944_at) / RFU, VPS4B / Fold change vs veh, VPS4B / RFU, CREB1 / Fold change vs veh, CREB1 / RFU, DNAJC13 / Fold change vs veh, DNAJC13 / RFU, GNAQ / Fold change vs veh, GNAQ / RFU, CDK5R1 / Fold change vs veh, CDK5R1 / RFU, ZRANB3 / Fold change vs veh, ZRANB3 / RFU, CUL4A / Fold change vs veh, CUL4A / RFU, CCNY / Fold change vs veh, CCNY / RFU, UFL1 / Fold change vs veh, UFL1 / RFU, COG3 / Fold change vs veh, COG3 / RFU, DIAPH2 / Fold change vs veh, DIAPH2 / RFU, SKA2 / Fold change vs veh, SKA2 / RFU, AFF3 / Fold change vs veh, AFF3 / RFU, LMF1 / Fold change vs veh, LMF1 / RFU, IPO11 / Fold change vs veh, IPO11 / RFU, DFFB / Fold change vs veh, DFFB / RFU, FOXP1 / Fold change vs veh, FOXP1 / RFU, CARD8 / Fold change vs veh, CARD8 / RFU, STRN3 / Fold change vs veh, STRN3 / RFU, ADK / Fold change vs veh, ADK / RFU, RASSF2 / Fold change vs veh, RASSF2 / RFU, WIPF1 / Fold change vs veh, WIPF1 / RFU, LARP1B / Fold change vs veh, LARP1B / RFU, RASA1 / Fold change vs veh, RASA1 / RFU, RB1 / Fold change vs veh, RB1 / RFU, PPFIA1 / Fold change vs veh, PPFIA1 / RFU, MAT2A / Fold change vs veh, MAT2A / RFU, CCT5 / Fold change vs veh, CCT5 / RFU, WDR92 / Fold change vs veh, WDR92 / RFU, CUX1 / Fold change vs veh, CUX1 / RFU, TTC7A / Fold change vs veh, TTC7A / RFU, TMEM135 / Fold change vs veh, TMEM135 / RFU, DEPTOR / Fold change vs veh, DEPTOR / RFU, CPM / Fold change vs veh, CPM / RFU, DNAJB6 / Fold change vs veh, DNAJB6 / RFU, CACNA2D3 / Fold change vs veh, CACNA2D3 / RFU, DTX4 / Fold change vs veh, DTX4 / RFU, TFCP2 / Fold change vs veh, TFCP2 / RFU, GMCL1 /// GMCL1P1 / Fold change vs veh, GMCL1 /// GMCL1P1 / RFU, AEBP2 / Fold change vs veh, AEBP2 / RFU, SNHG1 /// SNORD22 /// SNORD25 /// SNORD26 /// SNORD27 /// SNORD28 /// SNORD29 /// SNORD31 / Fold change vs veh, SNHG1 /// SNORD22 /// SNORD25 /// SNORD26 /// SNORD27 /// SNORD28 /// SNORD29 /// SNORD31 / Fold change (Aza/veh), C12orf56 (ProbeSet 11735607_a_at) / Fold change (ACY-1035/veh), C12orf56 (ProbeSet 11735607_a_at) / Fold change (Aza/veh), FGFR1OP (ProbeSet 11751329_s_at) / Fold change (ACY-1035/veh), FGFR1OP (ProbeSet 11751329_s_at) / Fold change (Aza/veh), VPS36 (ProbeSet 11739960_a_at) / Fold change (ACY-1035/veh), VPS36 (ProbeSet 11739960_a_at) / RFU SYPL1 (11715823_x_at) / Fold change /veh SYPL1 (11715823_x_at) / RFU IGFBP7 (11715501_s_at) / Fold change /veh IGFBP7 (11715501_s_at) / RFU REEP3 (11722064_at) / Fold change /veh REEP3 (11722064_at) / RFU IGLL1 (11728026_x_at) / Fold change /veh IGLL1 (11728026_x_at): dose or concentration left out as unconfirmed
Conditions: ProbeSet 11721969_s_at; LIST B

SMILES: Nc1ccc(-c2cccs2)cc1NC(=O)c1ccc2c(c1)cc(C1CC1)n2CCN1CCOCC1 [ACY-1035]
- Fold change vs veh, BDP1: 0.84
